Measured values: PubChem BioAssay (NCI)
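Cells were grown in 96-well plates and exposed to each compound for 48 hours at five concentrations; endpoints were interpolated linearly between bracketing concentrations, or set to the highest concentration if not reached. The concentration for full growth arrest is given as TGI.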

What was measured:
Assay in all cases: DTP human tumour cell line panel, 48 h
786-0 renal = tested on: 786-0 renal
A498 renal = tested on: A498 renal
A549 NSCLC = tested on: A549 NSCLC
CCRF-CEM leukemia = tested on: CCRF-CEM leukemia
COLO 205 colon = tested on: COLO 205 colon
DMS 114 small cell lung = tested on: DMS 114 small cell lung
DMS 273 small cell lung = tested on: DMS 273 small cell lung
EKVX NSCLC = tested on: EKVX NSCLC
HCC-2998 colon = tested on: HCC-2998 colon
HCT-116 colon = tested on: HCT-116 colon
HCT-15 colon = tested on: HCT-15 colon
HL-60(TB) leukemia = tested on: HL-60(TB) leukemia
HOP-18 NSCLC = tested on: HOP-18 NSCLC
HOP-62 NSCLC = tested on: HOP-62 NSCLC
HOP-92 NSCLC = tested on: HOP-92 NSCLC
HT29 colon = tested on: HT29 colon
IGROV1 ovarian = tested on: IGROV1 ovarian
K-562 leukemia = tested on: K-562 leukemia
KM12 colon = tested on: KM12 colon
LOX IMVI melanoma = tested on: LOX IMVI melanoma
LXFL 529 NSCLC = tested on: LXFL 529 NSCLC
M14 melanoma = tested on: M14 melanoma
M19-MEL melanoma = tested on: M19-MEL melanoma
MALME-3M melanoma = tested on: MALME-3M melanoma
MOLT-4 leukemia = tested on: MOLT-4 leukemia
NCI-H226 lung = tested on: NCI-H226 lung
NCI-H23 lung = tested on: NCI-H23 lung
NCI-H460 lung = tested on: NCI-H460 lung
OVCAR-3 ovarian = tested on: OVCAR-3 ovarian
OVCAR-4 ovarian = tested on: OVCAR-4 ovarian
OVCAR-5 ovarian = tested on: OVCAR-5 ovarian
OVCAR-8 ovarian = tested on: OVCAR-8 ovarian
RPMI-8226 leukemia = tested on: RPMI-8226 leukemia
RXF 393 renal = tested on: RXF 393 renal
RXF-631 renal = tested on: RXF-631 renal
SF-268 CNS = tested on: SF-268 CNS
SF-295 CNS = tested on: SF-295 CNS
SF-539 CNS = tested on: SF-539 CNS
SK-MEL-28 melanoma = tested on: SK-MEL-28 melanoma
SK-MEL-5 melanoma = tested on: SK-MEL-5 melanoma
SK-OV-3 ovarian = tested on: SK-OV-3 ovarian
SN12C renal = tested on: SN12C renal
SNB-19 CNS = tested on: SNB-19 CNS
SNB-75 CNS = tested on: SNB-75 CNS
SNB-78 CNS = tested on: SNB-78 CNS
SR leukemia = tested on: SR leukemia
SW-620 colon = tested on: SW-620 colon
TK-10 renal = tested on: TK-10 renal
U251 CNS = tested on: U251 CNS
UACC-257 melanoma = tested on: UACC-257 melanoma
UACC-62 melanoma = tested on: UACC-62 melanoma
UO-31 renal = tested on: UO-31 renal
CAKI-1 renal = tested on: CAKI-1 renal
DLD-1 colon = tested on: DLD-1 colon
KM20L2 colon = tested on: KM20L2 colon
NCI-H522 lung = tested on: NCI-H522 lung
SK-MEL-2 melanoma = tested on: SK-MEL-2 melanoma
XF 498 CNS = tested on: XF 498 CNS
ACHN renal = tested on: ACHN renal

In the case of `Cc1ccc(S(=O)(=O)Nc2cccc(C)c2C)cc1`, the TGI (786-0 renal) is reported as greater than 100 µM, the TGI (A498 renal) is reported as greater than 100 µM and the TGI (A549 NSCLC) is reported as greater than 100 µM. It also gave a TGI (CCRF-CEM leukemia) greater than 100 µM, a TGI (COLO 205 colon) greater than 100 µM and a TGI (DMS 114 small cell lung) greater than 100 µM. The TGI (DMS 273 small cell lung) was greater than 100 µM, the TGI (EKVX NSCLC) was greater than 100 µM and the TGI (HCC-2998 colon) was greater than 100 µM. The TGI (HCT-116 colon) was greater than 100 µM, the TGI (HCT-15 colon) was greater than 100 µM and the TGI (HL-60(TB) leukemia) was 87.1 µM. For the same molecule, the TGI (HOP-18 NSCLC) was greater than 100 µM, the TGI (HOP-62 NSCLC) was greater than 100 µM and the TGI (HOP-92 NSCLC) was greater than 100 µM. For the same molecule, the TGI (HT29 colon) was greater than 100 µM, the TGI (IGROV1 ovarian) was greater than 100 µM and the TGI (K-562 leukemia) was greater than 100 µM. The TGI (KM12 colon) was greater than 100 µM, the TGI (LOX IMVI melanoma) was greater than 100 µM and the TGI (LXFL 529 NSCLC) was greater than 100 µM. It also gave a TGI (M14 melanoma) greater than 100 µM, a TGI (M19-MEL melanoma) greater than 100 µM and a TGI (MALME-3M melanoma) greater than 100 µM. The TGI (MOLT-4 leukemia) was greater than 100 µM, the TGI (NCI-H226 lung) was greater than 100 µM and the TGI (NCI-H23 lung) was greater than 100 µM. For the same molecule, the TGI (NCI-H460 lung) was greater than 100 µM, the TGI (OVCAR-3 ovarian) was greater than 100 µM and the TGI (OVCAR-4 ovarian) was greater than 100 µM. It also gave a TGI (OVCAR-5 ovarian) greater than 100 µM, a TGI (OVCAR-8 ovarian) greater than 100 µM and a TGI (RPMI-8226 leukemia) greater than 100 µM. It also gave a TGI (RXF 393 renal) of 84 µM, a TGI (RXF-631 renal) greater than 100 µM and a TGI (SF-268 CNS) greater than 100 µM. For the same molecule, the TGI (SF-295 CNS) was greater than 100 µM, the TGI (SF-539 CNS) was greater than 100 µM and the TGI (SK-MEL-28 melanoma) was 81.5 µM. For the same molecule, the TGI (SK-MEL-5 melanoma) was greater than 100 µM, the TGI (SK-OV-3 ovarian) was greater than 100 µM and the TGI (SN12C renal) was greater than 100 µM. The TGI (SNB-19 CNS) was greater than 100 µM, the TGI (SNB-75 CNS) was 86.8 µM and the TGI (SNB-78 CNS) was greater than 100 µM. The TGI (SR leukemia) was greater than 100 µM, the TGI (SW-620 colon) was greater than 100 µM and the TGI (TK-10 renal) was greater than 100 µM. For the same molecule, the TGI (U251 CNS) was 79.9 µM, the TGI (UACC-257 melanoma) was greater than 100 µM and the TGI (UACC-62 melanoma) was greater than 100 µM. The TGI (UO-31 renal) was greater than 100 µM.
`COc1ccccc1/C=C1\N=C(C)OC1=O` showed a TGI (CAKI-1 renal) greater than 100 µM, a TGI (CCRF-CEM leukemia) greater than 100 µM and a TGI (COLO 205 colon) greater than 100 µM. For the same molecule, the TGI (DLD-1 colon) was greater than 100 µM, the TGI (HCC-2998 colon) was greater than 100 µM and the TGI (HCT-15 colon) was greater than 100 µM. It also gave a TGI (HOP-92 NSCLC) greater than 100 µM, a TGI (HT29 colon) greater than 100 µM and a TGI (IGROV1 ovarian) greater than 100 µM. For the same molecule, the TGI (K-562 leukemia) was greater than 100 µM, the TGI (KM12 colon) was greater than 100 µM and the TGI (KM20L2 colon) was greater than 100 µM. For the same molecule, the TGI (M14 melanoma) was greater than 100 µM, the TGI (M19-MEL melanoma) was greater than 100 µM and the TGI (MALME-3M melanoma) was greater than 100 µM. The TGI (MOLT-4 leukemia) was greater than 100 µM, the TGI (NCI-H23 lung) was greater than 100 µM and the TGI (NCI-H522 lung) was greater than 100 µM. The TGI (OVCAR-3 ovarian) was greater than 100 µM, the TGI (OVCAR-4 ovarian) was greater than 100 µM and the TGI (OVCAR-5 ovarian) was greater than 100 µM. It also gave a TGI (OVCAR-8 ovarian) greater than 100 µM, a TGI (RXF 393 renal) greater than 100 µM and a TGI (RXF-631 renal) greater than 100 µM. The TGI (SF-295 CNS) was greater than 100 µM, the TGI (SK-MEL-2 melanoma) was greater than 100 µM and the TGI (SK-MEL-28 melanoma) was greater than 100 µM. For the same molecule, the TGI (SK-MEL-5 melanoma) was greater than 100 µM, the TGI (SK-OV-3 ovarian) was greater than 100 µM and the TGI (SN12C renal) was greater than 100 µM. The TGI (SNB-19 CNS) was greater than 100 µM, the TGI (SNB-78 CNS) was greater than 100 µM and the TGI (SR leukemia) was greater than 100 µM. The TGI (SW-620 colon) was greater than 100 µM, the TGI (TK-10 renal) was greater than 100 µM and the TGI (U251 CNS) was greater than 100 µM. The TGI (UACC-62 melanoma) was greater than 100 µM, the TGI (UO-31 renal) was greater than 100 µM and the TGI (XF 498 CNS) was greater than 100 µM.
In the case of `CN=c1ss/c(=N\C(=S)N(C)C)n1C1CCCCC1`, the TGI (786-0 renal) is reported as greater than 10 µM, the TGI (A498 renal) is reported as greater than 31.6 µM and the TGI (A549 NSCLC) is reported as greater than 31.6 µM. The TGI (ACHN renal) was greater than 31.6 µM, the TGI (CAKI-1 renal) was greater than 31.6 µM and the TGI (CCRF-CEM leukemia) was greater than 31.6 µM. For the same molecule, the TGI (COLO 205 colon) was greater than 31.6 µM, the TGI (DLD-1 colon) was greater than 100 µM and the TGI (DMS 114 small cell lung) was greater than 31.6 µM. It also gave a TGI (DMS 273 small cell lung) greater than 31.6 µM, a TGI (EKVX NSCLC) greater than 31.6 µM and a TGI (HCC-2998 colon) greater than 31.6 µM. The TGI (HCT-116 colon) was greater than 10 µM, the TGI (HCT-15 colon) was greater than 31.6 µM and the TGI (HL-60(TB) leukemia) was greater than 100 µM. It also gave a TGI (HOP-18 NSCLC) greater than 31.6 µM, a TGI (HOP-62 NSCLC) greater than 100 µM and a TGI (HOP-92 NSCLC) greater than 10 µM. It also gave a TGI (HT29 colon) greater than 31.6 µM, a TGI (IGROV1 ovarian) greater than 31.6 µM and a TGI (K-562 leukemia) greater than 31.6 µM. For the same molecule, the TGI (KM12 colon) was greater than 31.6 µM, the TGI (KM20L2 colon) was greater than 31.6 µM and the TGI (LOX IMVI melanoma) was greater than 31.6 µM. It also gave a TGI (LXFL 529 NSCLC) greater than 31.6 µM, a TGI (M14 melanoma) greater than 10 µM and a TGI (M19-MEL melanoma) greater than 31.6 µM. It also gave a TGI (MALME-3M melanoma) greater than 31.6 µM, a TGI (MOLT-4 leukemia) greater than 31.6 µM and a TGI (NCI-H226 lung) greater than 31.6 µM. It also gave a TGI (NCI-H23 lung) greater than 31.6 µM, a TGI (NCI-H460 lung) greater than 31.6 µM and a TGI (NCI-H522 lung) greater than 31.6 µM. The TGI (OVCAR-3 ovarian) was greater than 31.6 µM, the TGI (OVCAR-4 ovarian) was greater than 31.6 µM and the TGI (OVCAR-5 ovarian) was greater than 31.6 µM. The TGI (OVCAR-8 ovarian) was greater than 31.6 µM, the TGI (RPMI-8226 leukemia) was greater than 100 µM and the TGI (RXF 393 renal) was greater than 31.6 µM. The TGI (RXF-631 renal) was greater than 100 µM, the TGI (SF-268 CNS) was greater than 31.6 µM and the TGI (SF-295 CNS) was greater than 31.6 µM. For the same molecule, the TGI (SF-539 CNS) was greater than 100 µM, the TGI (SK-MEL-2 melanoma) was greater than 31.6 µM and the TGI (SK-MEL-28 melanoma) was greater than 31.6 µM. It also gave a TGI (SK-MEL-5 melanoma) greater than 31.6 µM, a TGI (SK-OV-3 ovarian) greater than 31.6 µM and a TGI (SN12C renal) greater than 31.6 µM. The TGI (SNB-19 CNS) was greater than 31.6 µM, the TGI (SNB-75 CNS) was greater than 10 µM and the TGI (SNB-78 CNS) was greater than 31.6 µM. The TGI (SW-620 colon) was greater than 31.6 µM, the TGI (TK-10 renal) was greater than 31.6 µM and the TGI (U251 CNS) was greater than 31.6 µM. The TGI (UACC-257 melanoma) was greater than 31.6 µM, the TGI (UACC-62 melanoma) was greater than 31.6 µM and the TGI (UO-31 renal) was greater than 31.6 µM. For the same molecule, the TGI (XF 498 CNS) was greater than 31.6 µM.
